Data from patent publication US20060287320A1, “Preparation of thioarabinofuranosyl compounds and use thereof” (Southern Research Institute, priority 1998, published 2006).

What was measured:
CAK1-1 Renal = assay: In vitro IC50, 72 hour exposure, Natural Red assay; assay type: cell-based; conditions: read-out: IC50 Molar Values
Experimental: (§1) EXAMPLE 3 The following in vitro tests were carried out.
(§2) The above tests were carried out with a 72 hour exposure to the compound using Natural Red assay for all cell lines except SK-MEL 28 which was done with SRB assay.

DLD-1 Colon = assay: In vitro IC50, 72 hour exposure, Natural Red assay; assay type: cell-based; conditions: Homo sapiens, read-out: IC50 Molar Values
Experimental: as §1, §2

LOX IMV1 Melanoma = assay: In vitro IC50, 72 hour exposure, Natural Red assay; assay type: cell-based; conditions: read-out: IC50 Molar Values
Experimental: as §1, §2

NC1-H23 Lung = assay: In vitro IC50, 72 hour exposure, Natural Red assay; assay type: cell-based; conditions: read-out: IC50 Molar Values
Experimental: as §1, §2

PC-3 Prostate = assay: In vitro IC50, 72 hour exposure, Natural Red assay; assay type: cell-based; conditions: read-out: IC50 Molar Values
Experimental: as §1, §2

SNB-7 (CNS) = assay: In vitro IC50, 72 hour exposure, Natural Red assay; assay type: cell-based; conditions: Homo sapiens, read-out: IC50 Molar Values
Experimental: as §1, §2

ZR-75-1 Mammary = assay: In vitro IC50, 72 hour exposure, Natural Red assay; assay type: cell-based; conditions: Homo sapiens, read-out: IC50 Molar Values
Experimental: as §1, §2

SK-MEL 28 Melanoma = assay: In vitro IC50, 72 hour exposure, SRB assay; assay type: cell-based; conditions: Homo sapiens, read-out: IC50 Molar Values
Experimental: as §1, §2

SC Colon 36 Tumor = assay: Response of SC Colon 36 Tumor to Treatment; assay type: in vivo; conditions: 8 Mg/Kg IP, Q 4H × 3 day 9-17
Experimental: (§3) The following in vivo tests were carried out to illustrate the effectiveness of the compounds of the present invention.

SC CAKI-1 Renal Tumor = assay: Response of SC CAKI-1 Renal Tumor to Treatment; assay type: in vivo; conditions: Q 4H × 3 day 7-15
Experimental: as §3

SC HCT-116 Colon Tumor = assay: Response of SC HCT-116 Colon Tumor to Treatment; assay type: in vivo; conditions: Q 4H × 3 day 6-14
Experimental: as §3

CEM cells (wild-type) [1] = assay: Metabolism of dCyd and analogs in wild-type CEM cells; assay type: cell-based; conditions: WT CEM cells; 100 nM; incubation time 1 hour
Experimental: (§4) The radioactivity in the 5′-triphosphate peak and the incorporation of radioactivity in the acid-insoluble fraction (DNA) was determined.

araC-resistant CEM cells [2] = assay: Metabolism of dCyd and analogs in araC-resistant CEM cells; assay type: cell-based; conditions: 100 nM, incubation time 1 hour
Experimental: as §4

[3] = Phosphorylation in cell-free CEM extracts, wild-type; assay type: biochemical; conditions: wild-type CEM cell extract; 1 μm substrate
Experimental: (§5) The number in parentheses is the number of experiments performed. […] At various times after the initiation of the experiment, an aliquot of each reaction volume was removed and placed on DE-81 filters. The filters were washed with 1 mM ammonium formate and ethanol, and the amount of radioactivity on each filter was determined. […] This assay was verified by HPLC.

[4] = Phosphorylation in cell-free CEM extracts, araC-resistant; assay type: biochemical
Experimental: as §5

[5] = target: T1, dCyd Kinase Activity Isolated from Molt-4 Cells (Homo sapiens, UniProt P27707); assay: Substrate characteristics with dCyd kinase activity isolated from Molt-4 cells; assay type: biochemical; conditions: dCyd kinase activity from Molt-4 cells
T1 construct: endogenous in cells; host or cells: Molt-4 cells (enzyme purified from the cells)
Experimental: Each assay was done in duplicate and the kinetic constants were determined from linear double-reciprocal plots of 1/velocity versus 1/concentration of the substrate. The best line was determined by linear regression from at least 5 datum points, and the Km and Vmax were determined from the x and y intercepts.

CEM cells [6] = assay: Complete metabolism of dCyd, T-dCyd, araC and T-araC in CEM cells; assay type: cell-based; conditions: 100 nM, incubation 24 hours
Experimental: The complete metabolism of each compound was determined: The medium was analyzed for the original compound, its deaminated form using reverse phase HPLC, and H20; the acid-soluble extract was analyzed by SAX HPLC for phosphorylated metabolites; and the incorporation of radioactivity into acid-precipitable material (DNA) was determined.

CEM cells [7] = assay: Effect of F-dUrd on metabolism (deamination) in CEM cells; assay type: cell-based; conditions: 100 nM, incubation time 24 hours
Experimental: The complete metabolism of each compound was determined as described in the legend to Table 12, and the percent of deaminated metabolites for each compound was determined.

[8] = test system: DNA synthesis in CEM cells; assay: Effect on DNA synthesis ([3H]dThd incorporation) in CEM cells; assay type: cell-based; conditions: Homo sapiens, CCRF-CEM, 750 nM, average of two experiments, read-out: DNA synthesis, Percent of control
Experimental: (§6) Radiolabeled precursors of DNA [^3H]dThd, RNA ([^3H]Urd), or protein ([^3H]leucine) were added to each treatment 30 minutes after the addition of each compound. Samples were taken 1, 2, 3 and 4 hours after the addition of radiolabeled precursors, and the incorporation of radioactivity into RNA, DNA, or protein were determined as described (Parker et al, Biochem. Pharmacol. 55: 1673-1681, 1998). Each number represents the average of two experiments.

[9] = test system: RNA synthesis in CEM cells; assay: Effect on RNA synthesis ([3H]Urd incorporation) in CEM cells; assay type: cell-based; conditions: 750 nM, average of two experiments
Experimental: as §6

[10] = test system: protein synthesis in CEM cells; assay: Effect on protein synthesis ([3H]leucine incorporation) in CEM cells; assay type: cell-based; conditions: Homo sapiens, CCRF-CEM, 750 nM, average of two experiments, read-out: protein synthesis, Percent of control
Experimental: as §6

CEM cells (wild-type) [11] = assay: Inhibition of CEM cell growth, wild-type; conditions: Homo sapiens, CCRF-CEM, read-out: IC50 (nM) Wild-type
Experimental: (§7) CEM cells were incubated with various concentrations of each compound and the effect on. cell numbers was determined using a Coulter Counter. The IC50 was determined from a plot of the percent of control growth versus drug concentration. The data presented are the mean and standard deviation from 3 separate experiments.

araC-resistant CEM cells [12] = assay: Inhibition of CEM cell growth, araC-resistant
Experimental: as §7

T1 sequence (P27707 whole entry): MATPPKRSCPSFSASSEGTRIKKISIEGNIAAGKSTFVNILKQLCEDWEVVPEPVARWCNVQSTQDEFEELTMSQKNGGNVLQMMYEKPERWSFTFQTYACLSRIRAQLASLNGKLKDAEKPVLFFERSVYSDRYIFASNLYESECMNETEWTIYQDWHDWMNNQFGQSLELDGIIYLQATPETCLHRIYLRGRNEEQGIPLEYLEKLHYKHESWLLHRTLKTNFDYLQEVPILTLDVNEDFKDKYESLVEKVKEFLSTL

Nc1ccn([C@@H]2S[C@H](CO)[C@@H](O)[C@@H]2O)c(=O)n1 [T-araC, 1-(4-Thio-β-D-arabinofuranosyl) cytosine]
IC50 (CAK1-1 Renal): 3 µM
IC50 (DLD-1 Colon): 7 µM
IC50 (LOX IMV1 Melanoma): 7 µM
IC50 (NC1-H23 Lung): 5 µM
IC50 (PC-3 Prostate): 8 µM
IC50 (SNB-7 (CNS)): 1 µM
IC50 (ZR-75-1 Mammary): 3 µM
IC50 (SK-MEL 28 Melanoma): 7 µM
Days Delay (T − C) (SC Colon 36 Tumor): >38.5 days
Days to 2 Doubling (SC Colon 36 Tumor): >49.0 days
Non-Specific Deaths/Total (SC Colon 36 Tumor): 0/5
Tumor Free Surv/Total (SC Colon 36 Tumor): 4/5
Tumor Regression Number of Complete (SC Colon 36 Tumor): 4
Tumor Regression Number of Partial (SC Colon 36 Tumor): 0
Days Delay (T − C) (SC CAKI-1 Renal Tumor; 8 Mg/Kg IP): 41.2 days
Days to 3 Doubling (SC CAKI-1 Renal Tumor; 8 Mg/Kg IP): 50.7 days
Non-Specific Deaths/Total (SC CAKI-1 Renal Tumor; 8 Mg/Kg IP): 0/6
Tumor Free Surv/Total (SC CAKI-1 Renal Tumor; 8 Mg/Kg IP): 0/6
Tumor Regression Duration Med (SC CAKI-1 Renal Tumor; 8 Mg/Kg IP): 12.7 days
Tumor Regression Duration Range (SC CAKI-1 Renal Tumor; 8 Mg/Kg IP): 9 to 18 days
Tumor Regression Number of Complete (SC CAKI-1 Renal Tumor; 8 Mg/Kg IP): 4
Tumor Regression Number of Partial (SC CAKI-1 Renal Tumor; 8 Mg/Kg IP): 1
Days Delay (T − C) (SC CAKI-1 Renal Tumor; 16 Mg/Kg IP): 50.3 days
Days to 3 Doubling (SC CAKI-1 Renal Tumor; 16 Mg/Kg IP): 59.8 days
Non-Specific Deaths/Total (SC CAKI-1 Renal Tumor; 16 Mg/Kg IP): 1/6
Tumor Free Surv/Total (SC CAKI-1 Renal Tumor; 16 Mg/Kg IP): 0/6
Tumor Regression Duration Med (SC CAKI-1 Renal Tumor; 16 Mg/Kg IP): 26.9 days
Tumor Regression Duration Range (SC CAKI-1 Renal Tumor; 16 Mg/Kg IP): 16 to 48 days
Tumor Regression Number of Complete (SC CAKI-1 Renal Tumor; 16 Mg/Kg IP): 5
Tumor Regression Number of Partial (SC CAKI-1 Renal Tumor; 16 Mg/Kg IP): 0
Days Delay (T − C) (SC HCT-116 Colon Tumor; 13.3 Mg/Kg IP): >43.1 days
Days to 2 Doubling (SC HCT-116 Colon Tumor; 13.3 Mg/Kg IP): >52.0 days
Non-Specific Deaths/Total (SC HCT-116 Colon Tumor; 13.3 Mg/Kg IP): 0/6
Tumor Free Surv/Total (SC HCT-116 Colon Tumor; 13.3 Mg/Kg IP): 5/6
Tumor Regression Duration Med (SC HCT-116 Colon Tumor; 13.3 Mg/Kg IP): 23.6 days
Tumor Regression Duration Range (Days) (SC HCT-116 Colon Tumor; 13.3 Mg/Kg IP): 24-24 Days
Tumor Regression Number of Complete (SC HCT-116 Colon Tumor; 13.3 Mg/Kg IP): 6
Tumor Regression Number of Partial (SC HCT-116 Colon Tumor; 13.3 Mg/Kg IP): 0
Days Delay (T − C) (SC HCT-116 Colon Tumor; 20 Mg/Kg IP): >43.1 days
Days to 2 Doubling (SC HCT-116 Colon Tumor; 20 Mg/Kg IP): >52.0 days
Non-Specific Deaths/Total (SC HCT-116 Colon Tumor; 20 Mg/Kg IP): 0/6
Tumor Free Surv/Total (SC HCT-116 Colon Tumor; 20 Mg/Kg IP): 6/6
Tumor Regression Number of Complete (SC HCT-116 Colon Tumor; 20 Mg/Kg IP): 6
Tumor Regression Number of Partial (SC HCT-116 Colon Tumor; 20 Mg/Kg IP): 0
DNA (CEM cells (wild-type) [1]): 0.0056 pmoles/10^6 cells
Total (CEM cells (wild-type) [1]): 0.2076 pmoles/10^6 cells
DNA (araC-resistant CEM cells [2]): 0.0025 pmoles/10^6 cells
DNA (percent of WT) (araC-resistant CEM cells [2]): 45% of WT
Total (araC-resistant CEM cells [2]): 0.0535 pmoles/10^6 cells
Total (percent of WT) (araC-resistant CEM cells [2]): 26% of WT
Phosphorylation, Wild-type [3]: 0.83 pmoles/mg protein/minute
Phosphorylation, araC-resistant CEM cells ([4]; araC-resistant CEM cell extract, 1 μm substrate): 0.011 pmoles/mg protein/minute
Percent of wild-type ([4]; phosphorylation in araC-resistant vs wild-type CEM extract): 1.3% of wild-type
Relative Vmax [5]: 0.46
DNA (percent of total) (CEM cells [6]): 0.3% of total
Original Compound (percent of total) (CEM cells [6]): 96% of total
Percent Deamination (CEM cells [7]; F-dUrd 0 μM): 0%
Percent Deamination (CEM cells [7]; F-dUrd 10 μM): 0%
activity at 0.75 µM [8]: 16%
RNA synthesis, Percent of control [9]: 87% of control
activity at 0.75 µM [10]: 72%
IC50 (CEM cells (wild-type) [11]): 24 ± 9 nM
IC50 (araC-resistant CEM cells [12]; Homo sapiens, CCRF-CEM, read-out: IC50 (nM) araC-resistant): 125 ± 84 nM
Resistant/WT (araC-resistant CEM cells [12]; ratio of IC50 araC-resistant / wild-type CEM cells): 5
